Marks after values point to notes of the source that are not given here. Values belong to the molecule of their own block, whether it stands above or below them.
Legend:
[1] = Competitive slurries Form 1 / Form 2 (thermodynamic stability); format: physicochemical; conditions: water activities 0.4-0.8; 5, 25, 50° C.
Protocol: Competitive slurries aiming to determine the order of stability between Form 1 and Form 2 were performed in a range of water activities (0.4-0.8).
Crystalline Form 1 (2 g) and Crystalline Hydrate Form 2 (2 g) were lightly ground together using a mortar and pestle and then mixed using a roller mixer for approximately 2 hours. An XRPD was collected on this sample.
Saturated solutions at 5° C./25° C. were prepared by suspending the mixed sample (200 mg) in 4 ml of the selected solvent and saturated solutions were prepared at 50° C. by suspending the mixed sample (100 mg) in 1 ml of the selected solvent. The saturated solutions were left stirring for 3 hrs at 25° C. and 50° C. The saturated solutions at 25° C. were filtered and split into solutions at 5° C. and 25° C. The mixed sample (50 mg) was added to the filtered solutions. Two control samples of Form 2 (50 mg) were prepared in 1 ml of acetone:water (99:1) and EtOH:water (95:5) and left stirring at 5° C., 25° C. and 50° C.

[2] = Gravimetric Vapor Sorption (GVS); format: physicochemical; conditions: 25° C., w/w
Protocol: Sorption isotherms were obtained using a SMS DVS Intrinsic moisture sorption analyzer, controlled by DVS Intrinsic Control software. The sample temperature was maintained at 25° C. by the instrument controls. The humidity was controlled by mixing streams of dry and wet nitrogen, with a total flow rate of 200 ml/min. The relative humidity was measured by a calibrated Rotronic probe (dynamic range of 1.0-100% RH), located near the sample. The weight change, (mass relaxation) of the sample as a function of % RH was constantly monitored by a microbalance (accuracy ±0.005 mg).
Typically, 5-30 mg of sample was placed in a tared mesh stainless steel basket under ambient conditions. The sample was loaded and unloaded at 40% RH and 25° C. (typical room conditions). A moisture sorption isotherm was performed as outlined below (2 scans per complete cycle). The standard isotherm was performed at 25° C. at 10% RH intervals over a 0-90% RH range. Typically, a double cycle (4 scans) was carried out. Data analysis was carried out within Microsoft Excel using the DVS Analysis Suite.

[3] = XRPD re-analysis after GVS isotherm; format: physicochemical; conditions: after isotherm at 90% RH and 25° C.
Protocol: The samples were recovered after completion of the isotherm experiment at 90% RH and 25° C. and re-analyzed by XRPD.

[4] = Stability of solid state forms (storage, drying), XRPD; format: physicochemical
Protocol: Samples were assessed for stability under ambient or static storage conditions of 25° C./[…] and 40° C./75% RH for 7 or 10 days. The samples were then re-analyzed by XRPD. Subsequent XRPD analysis results for the crystalline forms are described below: […]

[5] = Variable temperature XRPD (heating); format: physicochemical; conditions: heating to 110° C.
Protocol: For variable temperature (VT-XRPD) experiments the samples were prepared and analyzed in an Anton Paar chromed sample holder. A heating/cooling rate of 10° C./min was used with a 2 min isothermal hold before the measurement started. The measurement parameters are as per the standard screening data collection method (detailed above). Measurements were taken at the following temperatures: […]

[6] = system: patient fibroblasts (VLCAD, LCHAD, TFP deficiencies); conditions: Goddeeris 2017; cited from earlier work
CPT2-deficient myoblasts = conditions: Djouadi 2005; cited from earlier work
CPT2 = conditions: patient fibroblasts, mild CPT2 mutations; Djouadi 2003; cited from earlier work
[7] = listed as crystalline Form 4 of Compound II

- Reversible Water Uptake between 0-90% RH [2]: ~13.0% †
- Reversible Water Uptake between 0-90% RH ([2]; listed as crystalline Form 1 of Compound II): ~13.0%
- Solid State Form After GVS (XRPD) [3]: Unchanged (Form 1)
- time to complete conversion to Form 2 ([4]; 25° C./97% RH): 4 weeks
- XRPD form after storage ([4]; 25° C./97% RH/7 days): Form 2
- XRPD form after storage ([4]; 40° C./75% RH/7 days): Unchanged (Form 1)
Structure (SMILES): Cc1cc(OC/C=C(/c2ccc(F)cc2)c2ccc(C#CCN3CCOCC3)cc2)ccc1OCC(=O)[O-].[Na+] [Form 1, sodium (E)-2-(4-((3-(4-fluorophenyl)-3-(4-(3-morpholinoprop-1-yn-1-yl)phenyl)allyl)oxy)-2-methylphenoxy)acetate]
- form found in competitive slurries of Form 1 and Form 2 [1]: present in most cases with no evidence of Form 2

- Reversible Water Uptake between 0-90% RH [2]: ~23%
- Reversible Water Uptake between 0-90% RH [2, 7]: ~23%
- Solid State Form After GVS (XRPD) [3]: Form 2
- Solid State Form After GVS (XRPD) [3, 7]: converts to Form 2
- XRPD form after storage ([4]; 25° C./97% RH/7 days): Form 2
- XRPD form after storage ([4]; 25° C./97% RH/7 days, listed as crystalline Form 4 of Compound II): converts to Form 2
- XRPD form after storage ([4]; 40° C./75% RH/7 days): Form 1
- XRPD form after storage ([4]; 40° C./75% RH/7 days, listed as crystalline Form 4 of Compound II): converts to Form 1
- XRPD after heating [5]: unchanged
Structure (SMILES): Cc1cc(OC/C=C(/c2ccc(F)cc2)c2ccc(C#CCN3CCOCC3)cc2)ccc1OCC(=O)[O-].[Na+] [Form 4, sodium (E)-2-(4-((3-(4-fluorophenyl)-3-(4-(3-morpholinoprop-1-yn-1-yl)phenyl)allyl)oxy)-2-methylphenoxy)acetate]

Structure (SMILES): Cc1cnc(-c2ccc(C(F)(F)F)cc2)n1Cc1ccccc1OCCC[C@@H](C)CC(=O)O [MA-0211]
- fatty acid oxidation [6]: improvements

Structure (SMILES): CC(C)(Oc1ccc(CCNC(=O)c2ccc(Cl)cc2)cc1)C(=O)O [bezafibrate, 2-(4-{2-[(4-Chlorobenzoyl)amino]ethyl}phenoxy)-2-methylpropanoic acid]
- FAO (CPT2-deficient myoblasts): able to restore FAO
- activity of the deficient enzyme (CPT2) (CPT2): pharmacological enhancement

Reference: patent publication US11931365B2, “Use of PPAR-delta agonists in the treatment of disease” (Reneo Pharmaceuticals, Inc., priority 2022, dated 2024)
